# In patent US20110312945A1, “CRTH2 MODULATORS” (priority 2008, published 2011):
# Experiments:
# [1] = system: DK-PGD2-induced systemic eosinophilia; assay: DK-PGD2-Induced Systemic Eosinophilia in Rats; type: in vivo; settings: Rattus norvegicus, Eosinophil; female Sprague-Dawley rats, oral dosing 30 min before intracardiac 10 μg DK-PGD2, blood eosinophils at 60 min
# Experimental: DK-PGD2-Induced Systemic Eosinophilia in Rats. Female Sprague-Dawley rats (175-250 g) were dosed orally with test compound (or vehicle). Thirty minutes after dosing, animals were anaesthetized with isoflurane. Following induction of anaesthesia, animals received an intracardiac injection of 10 μg DK-PGD2 in 0.3 ml heparinized (10 U/ml) saline. Control animals received an injection of 0.3 ml heparinized saline. Sixty minutes after the intracardiac injection, animals were again anesthetized with isoflurane and a blood sample was drawn from the abdominal aorta (into heparin) while the rat was anaesthetized but not dead. An aliquot of blood (500 μL) was mixed with an equal volume of 4% dextran (mw 500,000) and the erythrocytes were allowed to settle. A cytospin preparation was made from the resulting leukocyte rich fraction (top) and the cytospin was fixed and stained with Diff-Quick Stain kit (Dade Behring Inc, Newark, Del.). An aliquot of the leukocyte rich fraction was taken for total leukocyte count using flow cytometer (Guava EasyCyte Mini system). Differential leukocyte counts were obtained from the cytospin preparations. Blood eosinophil numbers were determined from the total leukocyte count and the percentage eosinophils.
# [2] = target: T1, CRTH2 (Homo sapiens, UniProt Q9Y5Y4); assay: DPBS CD11b Antagonist Assay; type: cell-based; settings: polymorphonuclear cells in PBS, eosinophil CD11b expression, challenge with 15R-Methyl-PGD2 (10 nM)
# T1 construct: polymorphonuclear cells (0.5 ml; 10^6/ml cells) in PBS containing 0.9 mM CaCl2 and 0.5 mM MgCl2; endogenous in cells; host or cells: polymorphonuclear cells (eosinophils gated by flow cytometry)
# T1 sequence (Q9Y5Y4 1-395): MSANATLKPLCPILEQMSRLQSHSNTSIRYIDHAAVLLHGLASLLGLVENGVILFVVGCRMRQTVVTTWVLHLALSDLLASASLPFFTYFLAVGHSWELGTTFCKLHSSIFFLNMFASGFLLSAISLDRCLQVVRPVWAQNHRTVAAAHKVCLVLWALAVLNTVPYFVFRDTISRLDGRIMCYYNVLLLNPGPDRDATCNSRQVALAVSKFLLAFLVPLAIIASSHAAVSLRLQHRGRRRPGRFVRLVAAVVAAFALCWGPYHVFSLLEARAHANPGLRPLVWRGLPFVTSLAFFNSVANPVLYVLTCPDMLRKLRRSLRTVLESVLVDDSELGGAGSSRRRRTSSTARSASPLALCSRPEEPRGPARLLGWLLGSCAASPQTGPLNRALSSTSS
# Experimental: DPBS CD11b Antagonist Assay. The potential CRTH2 antagonist activity of certain compounds was tested using a CD11b expression assay using essentially the method described by Monneret et al. (J Pharmacol Exp Ther 304:349-55, 2003). Briefly, polymorphonuclear cells (0.5 ml; 10^6/ml cells) in PBS containing 0.9 mM CaCl2 and 0.5 mM MgCl2) were preincubated with various concentrations of test compounds at room temperature for 10 minutes before they were challenged with the agonist 15R-Methyl-PGD2 (10 nM). The incubations were terminated by the addition of ice-cold FACSFlow (BD Biosciences; Cat# 342003) and centrifugation (400 g for 5 minutes at 4° C.). The cells were then incubated for 30 minutes at 4° C. with a mixture of PE-labeled mouse anti-human VLA-4 (5 μl; BD Biosciences) and FITC-labeled mouse anti-human CD11b (10 μl; Beckman Coulter). The cells were then incubated with Optilyse C (0.25 ml; Beckman Coulter) for 15 minutes, centrifuged, and then fixed in PBS (0.4 ml; calcium and magnesium free) containing 1% formaldehyde. The distribution of fluorescence intensities among 60,000 cells was measured by flow cytometry. Eosinophils were gated out on the basis of their granularity (high side scatter) and labeling with VLA-4 (PE fluorescence). CD11b was then measured in the eosinophil region on the basis of fluorescence due to FITC. All data were corrected for the value obtained for the corresponding isotope control antibody.
# [3] = target: T1, CRTH2; assay: Human Whole Blood CD11b Antagonist Assay; type: cell-based; settings: eosinophil CD11b expression, challenge with 15R-Methyl-PGD2 (10 nM)
# Experimental: Human Whole Blood CD11b Antagonist Assay (modified from Nicholson, et al. Pulmonary Pharmacology and Therapeutics: 20 (2007); 52-59). The potential CRTH2 antagonist activity of certain compounds was tested in human whole blood using an assay that tests the ability of the compounds to block the CD11b expression in eosinophils by 15-R-methyl-PGD2. A CRTH2 antagonist should block CD11b expression by subsequently added 15-Methyl-PGD2. Human whole blood (200 μL) was incubated at 37° C. for 10 minutes in the presence of various concentrations of test compounds before being challenged with the agonist 15R-Methyl-PGD2 (10 nM). Reactions were terminated by the addition of ice-cold PBS+0.5% BSA+2 mMEDTA (1 mL) and centrifugation (300×g for 5 minutes at 4° C.) Cells were then incubated at 4° C. for 10 min in the presence of human IgG. Cells were then incubated for 30-45 min with a mixture of PE-Cy5-labeled mouse anti-human CD16 (10 ul; BD Biosciences) and FITC-labeled mouse anti-human CD11b (10 μL; Beckman Coulter.) After rinsing (1 mL ice-cold PBS+0.5% BSA+2 mMEDTA), red blood cells were lysed by the addition of 1 mL ice-cold H2O to the cell pellet for 30 sec-1 min immediately followed by the addition of 3.5% NaCl (300 μL.) Cells were then rinsed (2x−1 ml ice cold PBS+0.5% BSA+2 mMEDTA) and fixed in PBS containing 1% formaldehyde. The distribution of fluorescence intensities was measured by flow cytometry. Eosinophils were gated out on the basis of their granularity (high side scatter) and absence of CD-16. CD11b was then measured on this eosinophil population on the basis of fluorescence due to FITC.
IC50 [2] [nM],IC50 [3] [nM],Structure (SMILES),ED50 [1] [mg/kg]
,,"Cc1c(Cc2ccccc2S(=O)(=O)c2ccccc2)c2c(n1CC(=O)O)CCC(C)(C)C2 [Example I-9, 2-(2,5,5-Trimethyl-3-(2-(phenylsulfonyl)benzyl)-4,5,6,7-tetrahydro-1H-indol-1-yl)acetic acid]",< 1
5 to 100,,"Cc1c(Cc2ccc(S(=O)(=O)N3CCCC3)cc2)c2c(n1CC(=O)O)CCC2 [Example I-19, 2-(2-Methyl-3-(4-(pyrrolidin-1-ylsulfonyl)benzyl)-5,6-dihydrocyclopenta[b]pyrrol-1(4H)-yl)acetic acid]",< 1
5 to 100,,"Cc1c(Cc2ccccc2S(=O)(=O)N2CCCC2)c2c(n1CC(=O)O)CCCCC2 [Example I-22, 2-(2-Methyl-3-(2-(pyrrolidin-1-ylsulfonyl)benzyl)-5,6,7,8-tetrahydrocyclohepta[b]pyrrol-1(4H)-yl)acetic acid]",< 1
,,"Cc1c(Cc2ccccc2S(=O)(=O)N2CCOCC2)c2c(n1CC(=O)O)CCC2 [Example I-23, 2-(2-methyl-3-(2-(morpholinosulfonyl)benzyl)-5,6-dihydrocyclopenta[b]pyrrol-1(4H)-yl)acetic acid]",1 to 10
< 5,5 to 100,"Cc1c(Cc2ccccc2S(=O)(=O)N2CCOCC2)c2c(n1CC(=O)O)C(C)(C)CCC2 [Example I-36, 2-(2,7,7-trimethyl-3-(2-(morpholinosulfonyl)benzyl)-4,5,6,7-tetrahydro-1H-indol-1-yl)acetic acid]",
< 5,> 500,"Cc1c(Sc2ccc(S(=O)(=O)N3CCCC3)cc2)c2c(n1CC(=O)O)CCC(C)(C)C2 [Example I-38, 2-(2,5,5-trimethyl-3-(4-(pyrrolidin-1-ylsulfonyl)phenylthio)-4,5,6,7-tetrahydro-1H-indol-1-yl)acetic acid]",
< 5,< 5,"Cc1c(Cc2ccccc2S(=O)(=O)N2CCOCC2)c2c(n1CC(=O)O)CCC(F)(F)C2 [Example I-39, 2-(5,5-difluoro-2-methyl-3-(2-(morpholinosulfonyl)benzyl)-4,5,6,7-tetrahydro-1H-indol-1-yl)acetic acid]",
100 to 500,> 500,"Cc1c(Sc2ccc(S(=O)(=O)N3CCOCC3)cc2)c2c(n1CC(=O)O)CC(C)(C)CC2=O [Example I-41, 2-(2,6,6-trimethyl-3-(4-(morpholinosulfonyl)phenylthio)-4-oxo-4,5,6,7-tetrahydro-1H-indol-1-yl)acetic acid]",
100 to 500,> 500,"Cc1c(Sc2ccc(S(=O)(=O)N3CCCC3)cc2)c2c(n1CC(=O)O)CC(C)(C)CC2=O [Example I-42, 2-(2,6,6-trimethyl-4-oxo-3-(4-(pyrrolidin-1-ylsulfonyl)phenylthio)-4,5,6,7-tetrahydro-1H-indol-1-yl)acetic acid]",
> 500,> 500,"Cc1c(Cc2ccc(S(=O)(=O)N3CCCC3)cc2)c2c(n1CC(=O)O)CC(C)(C)CC2=O [Example I-44, 2-(2,6,6-trimethyl-4-oxo-3-(4-(pyrrolidin-1-ylsulfonyl)benzyl)-4,5,6,7-tetrahydro-1H-indol-1-yl)acetic acid]",
> 500,> 500,"Cc1c(Cc2ccc(S(=O)(=O)N3CCOCC3)cc2)c2c(n1CC(=O)O)CC(C)(C)CC2=O [Example I-45, 2-(2,6,6-trimethyl-3-(4-(morpholinosulfonyl)benzyl)-4-oxo-4,5,6,7-tetrahydro-1H-indol-1-yl)acetic acid]",
< 5,< 5,"Cc1c(Cc2ccccc2S(=O)(=O)c2ccccc2)c2c(n1CC(=O)O)CC(C)(C)CC2=O [Example I-48, 2-(2,6,6-trimethyl-4-oxo-3-(2-(phenylsulfonyl)benzyl)-4,5,6,7-tetrahydro-1H-indol-1-yl)acetic acid]",
100 to 500,100 to 500,"CCOC(=O)Cn1c(C)c(Cc2ccccc2S(=O)(=O)c2ccccc2)c2c1CC(C)(C)CC2=O [Example I-63, Ethyl 2-(2,6,6-trimethyl-4-oxo-3-(2-(phenylsulfonyl)benzyl)-4,5,6,7-tetrahydro-1H-indol-1-yl)acetate]",
